According to US5622947A, “Benzoheterocyclic compounds and vasopressin antagonist and oxytocin antagonist compositions containing a benzoheterocyclic compound” (Otsuka Pharmaceutical Co., Ltd., priority 1992, dated 1997):
Counter-ions that a name gives are not always drawn.

Tests used:
[1] = biological target: T1, V1 Recepter (rat liver plasma membrane preparations) (Rattus norvegicus, UniProt P30560); experiment: V1 Recepter binding assay; conditions: [3H]-Arg-vasopressin 2×10^-10 M, 37° C., 10 minutes, pH 8.0, rat liver plasma membrane
T1 construct: rat liver plasma membrane preparations; from tissue; host or cells: rat liver plasma membranes
T1 sequence (P30560 whole entry): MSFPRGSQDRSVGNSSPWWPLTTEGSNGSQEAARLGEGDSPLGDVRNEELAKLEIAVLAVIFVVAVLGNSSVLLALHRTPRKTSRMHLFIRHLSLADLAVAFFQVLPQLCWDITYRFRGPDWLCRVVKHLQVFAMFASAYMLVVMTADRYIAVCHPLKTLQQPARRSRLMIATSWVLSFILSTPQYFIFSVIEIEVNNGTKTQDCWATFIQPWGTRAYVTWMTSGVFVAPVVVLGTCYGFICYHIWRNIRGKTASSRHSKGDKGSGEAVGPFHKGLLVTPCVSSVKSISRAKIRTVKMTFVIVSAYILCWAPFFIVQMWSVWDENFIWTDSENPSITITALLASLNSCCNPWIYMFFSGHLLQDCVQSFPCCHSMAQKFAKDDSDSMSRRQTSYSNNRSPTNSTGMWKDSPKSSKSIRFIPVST
Protocol: Test-1: V1 Recepter binding assay
By using rat liver plasma membrane preparations prepared according to Ichiraha's method [by Akira Ichihara: J. Bio. Chem., 258, 9283 (1983)], the plasma membrane (50,000 dpm, 2×10^-10 M) of [^3 H]-Arg-vasopressin and a test compound (60 μg, 10^-8 to 10^-4 M) were incubated at 37° C. for 10 minutes in 250 μl (in total volume) of 100 mM Tris-HCl buffer (pH=8.0), containing 5 mM MgCl2, 1 mM EDTA and 0.1% BSA. After the incubation, the mixture was filtered three times by using a glass filter (GF/F) so as to separate the membrane preparation by combining with vasopressin and then washed with the buffer (5 ml). This glass filter was taken out and mixed with a liquid of scintillation cocktail. The amount of [^3 H]-vasopressin combining with the membrane was measured by liquid scintillation counter and the rate of inhibitory effect of the test compound was calculated according to the following equation: […]
C1 : the amount of [^3 H]-vasopressin combining with the membrane in the presence of the test compound of a known amount,
(§1) C0 : the amount of [^3 H]-vasopressin combining with the membrane in the absence of the test compound,
B1 : the amount of [^3 H]-vasopressin combining with the membrane in the presence of the excess amount of vasopressin (10^-6 M).
The results are expressed as IC50 value, which is the concentration of the test compound required to achieve the inhitory effect in the rate of 50% and are shown in the following Table 156.

[2] = biological target: T2, V2 Recepter (rat kidney plasma membrane preparations) (Rattus norvegicus, UniProt Q00788); experiment: V2 Recepter binding assay; conditions: [3H]-Arg-vasopressin 4×10^-10 M, 4° C., pH 8.0, rat kidney plasma membrane
T2 construct: rat kidney plasma membrane preparations; from tissue; host or cells: rat kidney plasma membranes
T2 sequence (Q00788 whole entry): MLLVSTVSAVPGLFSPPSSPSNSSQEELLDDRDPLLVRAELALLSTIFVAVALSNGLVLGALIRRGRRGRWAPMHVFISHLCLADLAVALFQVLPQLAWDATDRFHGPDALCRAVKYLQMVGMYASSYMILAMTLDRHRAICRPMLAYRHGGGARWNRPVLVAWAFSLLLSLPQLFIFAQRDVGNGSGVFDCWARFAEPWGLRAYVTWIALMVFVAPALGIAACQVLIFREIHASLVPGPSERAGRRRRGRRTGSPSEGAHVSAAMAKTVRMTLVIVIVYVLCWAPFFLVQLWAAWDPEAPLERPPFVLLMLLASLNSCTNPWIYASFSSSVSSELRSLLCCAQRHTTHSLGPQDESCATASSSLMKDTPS
Protocol: Test 2: V2 Recepter binding assay
By using rat kidney plasma membrane preparations prepared according to Hechter's method [by O. Hechter: J. Bio. Chem., 2.53, 3211 (1978)], the plasma membrane (100,000 dpm, 4×10^-10 M) of [^3 H]-Arg-vasopressin and a test compound (0.6 mg, 10^-10 to 10^-5 M) were incubated at 4° C. for 3 hours in 250 μl (in total volume) of 100 mM Tris-HCl buffer (pH=8.0), containing, 5 mM MgCl2, 1 mM EDTA and 0.1% BSA. After the incubation, the mixture, the mixture was filtered by using a glass filter (GF/F) so as to separate the membrane preparation combining with vasopressin, then washed twice with the buffer (5 ml). This glass filter was taken out and mixed with liquid scintillation cocktail. The amount of [^3 H]-vasopressin combining with the membrane was measured by a liquid scintillation counter and the rate of inhibitory effect of the test compound was calculated according to the following equation: Rate of the inhibitory
C1 : the amount of [^3 H]-vasopressin combining with the membrane in the presence of the testcompound of a known amount,
as §1
B1 : the amount of [^3 H]-vasopressin combining with the mebrane in the presence of the excess amount of vasopressin (10^-6 M).
The results are expressed as IC50 value, which is the concentration of the test compound required to achieve the inhibitory effect in the rate of 50%, and are shown in the following Table 157.

SMILES: COc1cc(C(=O)N2CCCCc3cc(Cl)ccc32)ccc1NC(=O)c1ccccc1OCCCN1CCC(NC(C)=O)CC1 (single isomer, unassigned) [Example 72, 7-Chloro-1-[3-methoxy-4-{2-[3-(4-acetylamino-1-piperidinyl)propoxy]benzoylamino}benzoyl]-2,3,4,5-tetrahydro-1H-benzoazepine]
- IC50 [1]: 1.2 nM
- IC50 [2]: 74 nM

SMILES: COc1cc(C(=O)N2CCCCc3cc(Cl)ccc32)ccc1NC(=O)c1ccccc1OCCCn1cncn1 [Example 73, 7-Chloro-1-[3-methoxy-4-{2-[3-(1,2,4-triazol-1-yl)-propoxy]benzoylamino}benzoyl]-2,3,4,5-tetrahydro-1H-benzoazepine]
- IC50 [1]: 7 nM
- IC50 [2]: 80 nM

SMILES: COc1cc(NC(=O)c2ccccc2Cl)ccc1C(=O)N1CCCC(CC(=O)NCCN(C)C)c2cc(Cl)ccc21 (centres unmarked) [Example 89, 5-(2-Dimethylaminoethylamino)carbonylmethyl-7-chloro-1-[2-methoxy-4-(2-chlorobenzoylamino)benzoyl]-2,3,4,5-tetrahydro-1H-benzoazepine.cndot.hydrochloride]
- IC50 [1]: 9 nM
- IC50 [2]: 2.5 nM

SMILES: CCN(CC)CCN(C)C(=O)CC1CCCN(C(=O)c2ccc(NC(=O)c3ccccc3Br)c(OC)c2)c2ccc(Cl)cc21 (centres unmarked) [Example 91, 5-[N-Methyl-N-(2-diethylaminoethyl)amino]-carbonylmethyl-7-chloro-1-[3-methoxy-4-(2-bromobenzoylamino)benzoyl]-2,3,4,5-tetrahydro-1H-benzoazepine]
- IC50 [1]: 2.6 nM
- IC50 [2]: 3.5 nM

SMILES: CNC(=NC#N)NCCOC1CCCN(C(=O)c2ccc(NC(=O)c3ccccc3Cl)cc2OC)c2ccc(Cl)cc21 (centres unmarked) [Example 149, 5-[2-(3-Methyl-2-cyanogianidino)ethoxy]-7-chloro-1-[2-methoxy-4-(2-chlorobenzoylamino)benzoyl]-2,3,4,5-tetrahydro-1H-benzoazepine]
- IC50 [1]: 90 nM
- IC50 [2]: 45 nM

SMILES: COc1cc(NC(=O)c2ccccc2Cl)ccc1C(=O)N1CCCC(OCCNCC#N)c2cc(Cl)ccc21 (centres unmarked) [Example 151]
- IC50 [1]: 46 nM
- IC50 [2]: 8 nM

SMILES: CC(C)NCCCCOc1ccccc1C(=O)Nc1ccc(C(=O)N2CCCC(CC(=O)N(C)C)c3cc(Cl)ccc32)cc1 (centres unmarked) [Example 162, 5-Dimethylaminocarbonylmethyl-7-chloro-1-{4-[2-(4-isopropylaminobutoxy)benzoylamino]-benzoyl}-2,3,4,5-tetrahydro-1H-benzoazepine]
- IC50 [1]: 9.2 nM
- IC50 [2]: 130 nM

SMILES: COc1cc(C(=O)N2CCCC(CC(=O)N(C)CCN(C)C)c3cc(Cl)ccc32)ccc1NC(=O)c1ccccc1Br (centres unmarked) [Example 163, 5-[N-(2-Dimethylaminoethyl)-N-methylamino]-carbonylmethyl-7-chloro-1-[3-methoxy-4-(2-bromobenzoylamino)benzoyl]-2,3,4,5-tetrahydro-1H-benzoazepine]
- IC50 [1]: 1.8 nM
- IC50 [2]: 8 nM

SMILES: CCN(CCN(C)C)C(=O)COC1CCCN(C(=O)c2ccc(NC(=O)c3ccccc3Br)c(OC)c2)c2ccc(Cl)cc21 (centres unmarked) [Example 165, 5-[N-(2-Dimethylaminoethyl)-N-ethylamino]-carbonylmethoxy-7-chloro-[3-methoxy-4-(2-bromobenzoylamino)benzoyl]-2,3,4,5-tetrahydro-1H-benzoazepine]
- IC50 [1]: 3.6 nM
- IC50 [2]: 4.3 nM

SMILES: COc1cc(C(=O)N2CCCC(OCC(=O)N3CCCN(C)CC3)c3cc(Cl)ccc32)ccc1NC(=O)c1ccccc1Br (centres unmarked) [Example 166, 5-(4-Methyl-1-homopiperazinyl)carbonylmethoxy-7-chloro-1-[3-methoxy-4-(2-bromobenzoylamino)benzoyl]-2,3,4,5-tetrahydro-1H-benzoazepine]
- IC50 [1]: 4.8 nM
- IC50 [2]: 10 nM
